Here are results for 3 compounds from patent US20110224232A1 (Board of Regents, The University of Texas System, priority 2008, published 2011).

Series [1] concerns Aspergillus fumigatus. In words: Pulmonary fungal burden by colony forming units in infected mice. It counts as in vivo. The procedure:
(§1) Mice were monitored for an additional 5 days following discontinuation of treatment. Animals that appeared moribund prior to the end of the study were euthanized by halothane and death was recorded as occurring the next day. 12 mice were randomly selected from each group and euthanized on Day +8 for fungal burden analysis while any remaining mice were euthanized on Day +12. 2 additional mice were randomly selected from each group and euthanized on Day +8 and Day +12 for histological analysis
Lungs were homogenized in sterile saline (total volume 2 mL) supplemented with gentamicin and chloramphenicol using a tissue homogenizer (Polytron Dispensing and Mixing Technology PT 2100, Kinematica, Cincinnati, Ohio). Serial dilutions were prepared in sterile saline and plated in duplicate onto potato dextrose agar. Following 24 hours of incubation at 37° C., colonies were enumerated and colony forming units (CFU) per gram of lung tissue for each animal were calculated.
(§2) Statistical analyses were conducted as follows. Survival was plotted by Kaplan-Meier analysis, and differences in median survival and percent survival between prophylaxis groups were analyzed by the log-rank test and chi-square test, respectively, using Prism version 4 software (GraphPad, San Diego, Calif.). Differences in fungal burden endpoints (CFU/g and CE) were assessed for significance by analysis of variance with Tukey's post-test for multiple comparisons. A p-value of ≦0.05 was considered statistically significant for all comparisons.

Series [2] deals with Aspergillus fumigatus. In words: Pulmonary fungal burden by real-time quantitative PCR (conidial equivalents) in infected mice. It is filed as in vivo. As to conditions: Day + 8 per table footnote. The procedure:
as §1
Pulmonary fungal burden was also quantified by real-time quantitative polymerase chain reaction (qPCR) using previously described methods. Briefly, DNA was extracted from […] of lung homogenate with the use of a commercially available kit (DNeasy Tissue Kit, Qiagen, Valencia, Calif.) according to the manufacturer's instructions. DNA samples were analyzed in duplicate with the use of the ABI PRISM 7300 sequence-detection system (Applied Biosystems, Foster City, Calif.) with primers and dual-labeled fluorescent hybridization probes specific for the A. fumigatus 1,3-β-glucan synthase (FKS) gene (GenBank accession number U79728). The threshold cycle (Ct) of each sample was interpolated from a six-point standard curve generated by spiking naive mouse lungs with known amounts of conidia (102 to 107). An internal standard was amplified in separate reactions to correct for differences in DNA recovery. The resulting data was expressed as conidial equivalents (CE).
as §2

The test system of series [3] is Aspergillus fumigatus clinical isolate 293 (AF 293). Briefly: Survival of A. fumigatus-infected immunosuppressed mice (Kaplan-Meier). It counts as in vivo. As to conditions: A. fumigatus-infected female ICR mice, VOR inhalation BID 30-40 mg/kg, AmB intraperitoneal QD 1 mg/kg.
From the text: Conidia were harvested from Aspergillus fumigatus clinical isolate 293 (AF 293) cultures grown on potato dextrose agar (Hardy Diagnostics, Santa Maria, Calif.) by washing and scraping agar surfaces with 0.1% Tween 80 in sterile physiological saline and filtering through sterile glass wool. Conidia were re-suspended to achieve a final inoculum of ˜1×10^9 conidia/mL, as confirmed by hemocytometer counts and serial plating.
Mice were rendered immunosuppressed by intraperitoneal cyclophosphamide (250 mg/kg) and subcutaneous cortisone acetate (250 mg/kg) two days prior to inoculation (Day −2). Both cyclophosphamide (200 mg/kg intraperitoneal) and cortisone acetate (250 mg/kg subcutaneously) were re-administered on Day +3 following inoculation. Mice also received prophylactic antibiotic therapy of ceftazidime 50 mg/kg administered sub-cutaneously on Day −2 through Day +7.
To simulate pulmonary pathogenesis, mice were placed inside an acrylic chamber, and A. fumigatus conidia were introduced by aerosolizing the conidial suspension with a small particle nebulizer (Hudson Micro Mist, Hudson RCI, Temecula, Calif.) driven by compressed air. A standard exposure time of 1 hour was used to allow for complete aerosolization of the conidial suspension. Starting inocula were assessed by colony forming unit (CFU) enumeration from mice one hour post-inoculation.
The inhaled control group received 20 minute nebulizations of 100 mg/mL CAPTISOL® solutions BID beginning on Day −2 and continuing through Day +7. The intraperitoneal AmB group received 1 mg/kg Amphotericin B deoxycholate (Apothecon, Princeton, N.J.) by intraperitoneal injection (IP) once daily (QD) on Day +1 and continuing through Day +7 (FIG. 2).
Statistical analyses were conducted as follows. Survival was plotted by Kaplan-Meier analysis, and differences in median survival and percent survival between prophylaxis groups were analyzed by the log-rank test and chi-square test, respectively, using Prism version 4 software (GraphPad, San Diego, Calif.). […] A p-value of ≦0.05 was considered statistically significant for all comparisons.
The subject of the next series is A. fumigatus. Briefly: Lung histopathology, pulmonary lesion counts in A. fumigatus-infected mice. It is filed as in vivo, Aspergillus fumigatus. The method, then: Histopathological changes in lung tissue were evaluated and compared for four mice in each of the inhaled voriconazole, inhaled control, and intraperitoneal AmB groups. The inhaled control was aerosolized CAPTISOL® at a concentration of 100 mg/mL over 20 minutes. On day 8 post inoculation, animals were euthanized using halothane and 10% volume/volume formaldehyde was instilled into the lungs via the trachea. Lungs were then harvested and placed into 10% volume/volume formaldehyde. Tissue was fixed in formaldehyde for an adequate period of time followed by processing and embedding into paraffin wax. Coronal sections of the entire lung were obtained at a thickness of 4-6 μm and mounted on slides. Sections were stained with hematoxylin and eosin and viewed by light microscopy with a Zeiss AxioVision Imager at 10× magnification. Two investigators were blinded and independently evaluated each lung section. The extent of lung damage caused by invasive hyphae was recorded and quantified by counting and normalizing the number of gross lesions.
Normalization of the histopathology results was achieved by using the number of lung pieces (sections) on the slide as a denominator. The total number of lesions on the slide were counted and then divided by the number of pieces of tissue on that slide. This was done because the number of pieces of tissue per slide (again, all from the same cut of lung from the same animal) ranged from 4 to 9. For example, the normalized number of lesions would be 0.4 if 2 lesions were observed on a slide with 5 lung pieces. Similarly, the normalized value would be 0.14 if 1 lesion was observed on a slide with 7 lung pieces.

The test system of series [4] is invasive pulmonary aspergillosis. As to conditions: high doses, 40 mg/kg per day; cited from earlier work.
The conditions of series [5]: underivatized; cited from earlier work.
The mark [6] stands for this setting: normalized lesions, listed as AmB.

“And” between values parts separate entries of the source, which are not always exact repeats. Equal entries are not always repeated.

On to Amphotericin B deoxycholate, for which, in the series on Aspergillus fumigatus [1] (Day +8), the “A - Day 8 Fungal Burden Determined by CFU, Mean” value was found to be 4.37 log10 CFU; the “A - Day 8 Fungal Burden Determined by CFU, Median” value was 4.33 log10 CFU; the “A - Day 8 Fungal Burden Determined by CFU, Range” value is given as “(3.59-5.07) log10 CFU”. Further, in the series on Aspergillus fumigatus [1] (all samples, day 8 and day 12), the “B - Fungal Burden Determined by CFU for All Mice, Mean” value stood at 4.22 log10 CFU; the “B - Fungal Burden Determined by CFU for All Mice, Median” value is given as 4.33 log10 CFU; the “B - Fungal Burden Determined by CFU for All Mice, Range” value is recorded as “(3.24-5.07) log10 CFU”. In the series with Aspergillus fumigatus [2], the “C - Conidial Equivalents Determined by qPCR, Mean” value is 4.89 log10 conidial equivalents; the “C - Conidial Equivalents Determined by qPCR, Median” value is reported as 4.95 log10 conidial equivalents; the “C - Conidial Equivalents Determined by qPCR, Range” value was “(4.49-5.38) log10 conidial equivalents”. Besides, in the series with Aspergillus fumigatus [2] (normalized for wet lung weight), the “D - Conidial Equivalents per Gram of Lung Tissue Determined by Qpcr, Mean” value is given as 5.50 log10 conidial equivalents per; the “D - Conidial Equivalents per Gram of Lung Tissue Determined by Qpcr, Median” value is given as 5.57 log10 conidial equivalents per; the “D - Conidial Equivalents per Gram of Lung Tissue Determined by Qpcr, Range” value was “(5.09-5.88) log10 conidial equivalents per”. Further, in series [3] (to Day +12), the “Percent Survival” value is 23.1%. Also, the “Median Survival” value in series [3] was found to be 7 days. The “lung histopathology findings (in words)” value in the series with A. fumigatus (A. fumigatus-infected mice, aerosolized voriconazole, intraperitoneal amphotericin B) is “marked pulmonary disease, including necrosis and the presence of invasive hyphae, was observed”. In the series on A. fumigatus (normalized lesions), the “pulmonary lesions normalized for the number of lung tissue pieces per slide, Mean” value is 0.6. Further, in the series with A. fumigatus (setting [6]), the “pulmonary lesions normalized for the number of lung tissue pieces per slide, 25th Percentile” value is 0.13 and 0.1; the “pulmonary lesions normalized for the number of lung tissue pieces per slide, 75th Percentile” value was 1.31 and 1.3; the “pulmonary lesions normalized for the number of lung tissue pieces per slide, Maximum” value is 1.6; the “pulmonary lesions normalized for the number of lung tissue pieces per slide, Median” value is 0.28 and 0.3. The “pulmonary lesions normalized for the number of lung tissue pieces per slide, Minimum” value in the series with A. fumigatus (setting [6]) was 0.13 and 0.1. Also, in the series with A. fumigatus (number of lesions), the “pulmonary lesions in all available histological samples, 25th Percentile” value came to 1.0; the “pulmonary lesions in all available histological samples, 75th Percentile” value is 6.8; the “pulmonary lesions in all available histological samples, Maximum” value is reported as 8.0; the “pulmonary lesions in all available histological samples, Mean” value is recorded as 3.3. Further, in the series on A. fumigatus (number of lesions), the “pulmonary lesions in all available histological samples, Median” value stood at 2.0 and the “pulmonary lesions in all available histological samples, Minimum” value came out at 1.0.

With `CC[C@@H]([C@H](C)O)n1ncn(-c2ccc(N3CCN(c4ccc(OC[C@@H]5CO[C@@](Cn6cncn6)(c6ccc(F)cc6F)C5)cc4)CC3)cc2)c1=O` [posaconazole], the “fungal burden as measured by quantitative real-time PCR” value in series [4] was “significant reductions in fungal burden”.

For the compound `OC[C@H]1O[C@@H]2O[C@H]3[C@H](O)[C@@H](O)[C@@H](O[C@H]4[C@H](O)[C@@H](O)[C@@H](O[C@H]5[C@H](O)[C@@H](O)[C@@H](O[C@H]6[C@H](O)[C@@H](O)[C@@H](O[C@H]7[C@H](O)[C@@H](O)[C@@H](O[C@H]1[C@H](O)[C@H]2O)O[C@@H]7CO)O[C@@H]6CO)O[C@@H]5CO)O[C@@H]4CO)O[C@@H]3CO` [α-CD], in series [5], the “water solubility at saturation” value is recorded as “about 14.5 % w/w”.
